This is an account of results in US10131663B2, “Chemical compounds” (AstraZeneca AB, priority 2016, dated 2018).

In brackets after ≈: the same amount, converted by molar mass.

As usually defined, the hepatocyte CLint is the capacity of the preparation to metabolise the compound, expressed as a volume cleared per time. One may read the IC50 as the concentration that gives 50% inhibition. A word on the solubility: it is how much of the substance goes into solution per volume. Read a high solubility as much dissolved substance. As usually defined, the logD is lipophilicity at a set pH, counting ionised and neutral species. For orientation: Papp means a coefficient for how fast a substance crosses the barrier. A low value points to poor permeation. One may read the efflux ratio as the permeability from basolateral to apical divided by that in the opposite direction, in the common usage.

A short description of data set [1]: Human hepatocyte assay (metabolic stability). Format: in vitro ADME. As to conditions: human hepatocytes. The procedure: The metabolic stability of compounds in human hepatocytes was assessed using the following protocol: • 1. Prepare 10 mM stock solutions of compound and control compounds in appropriate solvent (DMSO). Place incubation medium (L-15 Medium) in a 37° C. water bath, and allow warming for at least 15 minutes prior to use. • 2. Add 80 μL of acetonitrile to each well of the 96-well deep well plate (quenching plate). • 3. In a new 96-well plate, dilute the 10 mM test compounds and the control compounds to 100 μM by combining 198 μL of acetonitrile and 2 μL of 10 mM stock. • 4. Remove a vial of cryopreserved (less than −150° C.) human hepatocytes (LiverPool™ 10 Donor Human hepatocytes obtained from Celsis IVT. Chicago, Ill. (Product No. S01205)) from storage, ensuring that vials remain at cryogenic temperatures until thawing process ensues. As quickly as possible, thaw the cells by placing the vial in a 37° C. water bath and gently shaking the vials. Vials should remain in water bath until all ice crystals have dissolved and are no longer visible. After thawing is complete, spray vial with 70% ethanol, transfer the vial to a bio-safety cabinet. • 5. Open the vial and pour the contents into the 50 mL conical tube containing thawing medium. Place the 50 mL conical tube into a centrifuge and spin at 100 g for 10 minutes. […] Using Cellometer® Vision, count cells and determine the viable cell density. Cells with poor viability (<80% viability) are not acceptable for use. […] Transfer 247.5 μL of hepatocytes into each well of a 96-well cell culture plate. Place the plate on Eppendorf Thermomixer Comfort plate shaker to allow the hepatocytes to warm for 10 minutes. • 8. Add 2.5 μL of 100 μM test compound or control compounds into an incubation well containing cells, mix to achieve a homogenous suspension at 0.5 min, which when achieved, will define the 0.5 min time point. At the 0.5 min time, transfer 20 μL of incubated mixture to wells in a “Quenching plate” followed by vortexing. • 9. Incubate the plate at 37° C. at 900 rpm on an Eppendorf Thermomixer Comfort plate shaker. […] Centrifuge the quenching plates for 20 minutes at 4,000 rpm. 4 different compounds are pooled into one cassette and used for LC/MS/MS analysis.
All calculations were carried out using Microsoft Excel. Peak areas were determined from extracted ion chromatograms. In vitro intrinsic clearance (in vitro Clint, in […]) of parent compound was determined by regression analysis of the Ln percent parent disappearance vs. time curve.
V=incubation volume (0.25 mL);
N=number of hepatocytes per well (0.25×10^6 cells).

For data set [2], the target named is recombinant human Estrogen Receptor alpha ligand binding domain (ER alpha-LBD (GST)) (Homo sapiens (Human), UniProt P03372). Put plainly: ERα binding assay (LanthaScreen TR-FRET competition). As to conditions: TR-FRET, displacement of Fluormone ES2. The gist of the method: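 Competition binding to GST-tagged human ERα ligand-binding domain, read by LanthaScreen TR-FRET: Tb-anti-GST antibody labels the receptor and compounds displace a fluorescent tracer, lowering the signal. IC50 was taken from dose-response curve fitting.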
For orientation: In TR-FRET formats the signal depends on donor and acceptor labels being close together.

Data set [3] addresses T1, Estrogen Receptor (ERα) in MCF-7 cells (Homo sapiens (Human), UniProt P03372). Kind of data set: MCF-7 ER down-regulation assay (immuno-fluorescence). Format: cell-based. The gist of the method:
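Compounds dispensed acoustically from DMSO stocks onto MCF-7 cells; cells fixed 20 min at room temperature, then automated immunostaining for ERα with overnight incubation at 4° C. Read-out is mean total ER fluorescence intensity normalized to cell number (intensity per cell), with curve fitting for concentration-response values.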

Data set [4] can be described thus: Thermodynamic solubility (shake-flask). Format: physicochemical. As to conditions: aqueous phosphate buffer, 25 °C, pH 7.4, aqueous buffer, thermodynamic from solid, aqueous phosphate buffer pH 7.4, 24 hours. Summed up:
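Shake-flask method starting from 10 mM DMSO stocks, which are dried before use. Residue equilibrated 24 h at 25° C. in aqueous phosphate buffer, pH 7.4. Dissolved fraction separated and quantified by UPLC/MS/MS, with QC samples in each run.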

Data set [5] can be described thus: log D (shake flask, 1-octanol/aqueous buffer). Format: physicochemical. Summed up:
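Distribution between 1-octanol and aqueous buffer at pH 7.4 was measured by shake flask, with compounds run in mixtures of ten. Relative concentrations in each phase were quantified by UPLC with quantitative MS. Caffeine served as a low-log D QC sample in all runs.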

Data set [6] can be described thus: Human Caco-2 bidirectional permeability A to B and B to A. Format: in vitro ADME. As to conditions: for Papp at 2 h: Caco-2, 2 hours, pH 7.4. On the procedure:
An automated assay was used to determine the bidirectional permeability (efflux and uptake) of compounds in Caco-2 cells carried out over 2 hours at pH 7.4.
The efflux ratio (ER) can be determined using the following equation: ER=Papp(B-A)/Papp(A-B) Where Papp (B-A) indicates the apparent permeability coefficient in basolateral to apical direction, and Papp (A-B) indicates the apparent permeability coefficient in apical to basolateral direction. Human Caco-2 Passive Permeability A to B Papp
(In general: Caco-2 cells form a polarised layer with tight junctions and transporters.)

A short description of data set [7]: Human plasma protein binding (equilibrium dialysis). Format: in vitro ADME. As to conditions: dialysis 18 hours. Summed up: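 Fraction unbound (fu %) in human plasma, from LC/MSMS of plasma and buffer sides (7-point plasma calibration) after 18 h rapid equilibrium dialysis. Single determinations, with compounds pooled up to 10 per plasma pool.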
In general terms: In equilibrium dialysis only unbound substance equilibrates across the membrane.

The nature of data set [8]: Human Caco-2 passive permeability A to B Papp. Format: in vitro ADME. As to conditions: apical pH 6.5, basolateral pH 7.4, efflux inhibitor cocktail. On the procedure: An automated assay was used to determine the passive permeability of compounds in Caco-2 cell monolayers carried out over 2 hours with an apical pH of 6.5 and basolateral pH of 7.4. The Caco-2 AB inhibition assay is carried out with chemical inhibition of the three major efflux transporters ABCB1 (P-gp), ABCG2 (BCRP) and ABCC2 (MRP2) in Caco-2 cells. Incubation of both apical and basolateral is carried out with a cocktail of inhibitors (50 μM quinidine, 20 μM sulfasalazine and 100 μM benzbromarone). Samples were analyzed through LC/MS/MS to estimate the apparent permeability coefficients (Papp) of compounds across Caco-2 cell monolayers and results are quoted in units of ×10^−6 cm/s.

The target in data set [9] is T1, Estrogen Receptor (ERα) in MCF-7 cells. Put plainly: Western blotting assay, ER down-regulation in MCF-7. Format: cell-based. As to conditions: 100 nM compound, 48 h, normalised to 100 nM fulvestrant. On the procedure: (§1) Cells were incubated with compounds (100 nM) or vehicle control (0.1% DMSO) for 48 h at 37° C., 5% CO2 before washing once with PBS and lysing with 80 μl lysis buffer (25 mM Tris/HCl, 3 mM EDTA, 3 mM EGTA, 50 mM NaF, 2 mM sodium orthovanadate, 0.27 M sucrose, 10 mM β-glycerophosphate, 5 mM sodium pyrophosphate, 0.5% TritonX-100, pH 6.8) on ice.
(§2) Samples were boiled for 10 min at 95° C. and then frozen at −20° C. until ready for use.
(§3) The blot was stained with Ponceau S (P7170, Sigma) and cut according to appropriate molecular weight markers.
(§4) Membranes were blocked for 1 hour at room temp in 5% Marvel (w/v) in phosphate-buffered saline containing 0.05% Tween™ 20 (PBS/Tween). Blots were then incubated with anti-ERα (SP1) rabbit monoclonal antibody (Thermofisher) diluted 1:1000 at 4° C. overnight (with gentle shaking) followed by several washes with PBS/Tween. […] All antibodies were made up in 5% Marvel (w/v) in PBS/Tween.
(§5) Down-regulation of the ERα receptor was normalised to the vehicle control (0% down-regulation) and the 100 nM fulvestrant control (100% down-regulation) run within the same gel.

For data set [10], the target named is estrogen receptor (ERα) in CAMA-1 cells (Homo sapiens (Human), UniProt P03372). Put plainly: Western blotting assay, ER down-regulation in CAMA-1. As to conditions: 100 nM compound, 48 h, normalised to 100 nM fulvestrant. Format: cell-based. On the procedure: as §1, §2, §3, §4, §5
The target in the next data set is hERG potassium channel (Homo sapiens (Human), UniProt Q12809). Kind of data set: hERG binding assay (automated patch clamp, CHO cells). Format: cell-based. As to conditions: CHO cell line, Nanion Syncropatch 384PE. The gist of the method:
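CHO cells on automated patch clamp; compounds tested in quadruplicate. Currents evoked every 15 s from −80 mV holding by a 500 ms step to 60 mV then 500 ms to −40 mV.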

The target in a further data set is ERα receptor (Homo sapiens (Human), UniProt P03372). As to conditions: 500 mg monthly dose; cited from earlier work.
[11] abbreviates: 1-octanol/aqueous buffer, pH 7.4, pH 7.4, 1-octanol/aqueous buffer.

T1 sequence (P03372 whole entry): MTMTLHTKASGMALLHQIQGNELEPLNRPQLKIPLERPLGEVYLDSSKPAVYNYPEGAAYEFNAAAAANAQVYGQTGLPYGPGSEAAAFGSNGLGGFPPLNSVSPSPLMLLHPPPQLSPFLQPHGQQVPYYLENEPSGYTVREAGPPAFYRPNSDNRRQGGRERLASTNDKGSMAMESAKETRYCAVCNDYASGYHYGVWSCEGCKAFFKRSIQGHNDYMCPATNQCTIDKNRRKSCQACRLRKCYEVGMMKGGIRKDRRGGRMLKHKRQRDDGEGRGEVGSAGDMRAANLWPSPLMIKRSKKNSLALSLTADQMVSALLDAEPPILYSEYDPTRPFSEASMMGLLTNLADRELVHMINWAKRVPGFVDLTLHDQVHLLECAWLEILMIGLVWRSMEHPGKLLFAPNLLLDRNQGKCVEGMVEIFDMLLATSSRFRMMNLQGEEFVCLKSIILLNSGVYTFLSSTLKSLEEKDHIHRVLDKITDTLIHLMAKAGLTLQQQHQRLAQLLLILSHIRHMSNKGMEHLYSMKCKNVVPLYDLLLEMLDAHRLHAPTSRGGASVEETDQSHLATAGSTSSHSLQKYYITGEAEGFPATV
ERα receptor, sequence (P03372 whole entry): as above
estrogen receptor (ERα) in CAMA-1 cells, sequence (P03372 whole entry): as above
recombinant human Estrogen Receptor alpha ligand binding domain (ER alpha-LBD (GST)), sequence (P03372 307-554): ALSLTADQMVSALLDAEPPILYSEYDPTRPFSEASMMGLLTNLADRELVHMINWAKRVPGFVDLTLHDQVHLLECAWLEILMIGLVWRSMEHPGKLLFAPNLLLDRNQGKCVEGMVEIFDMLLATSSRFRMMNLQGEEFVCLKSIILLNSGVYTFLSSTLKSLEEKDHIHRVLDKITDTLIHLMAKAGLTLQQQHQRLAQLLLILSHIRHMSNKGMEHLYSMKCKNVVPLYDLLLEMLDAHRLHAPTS
hERG potassium channel, sequence (Q12809 whole entry): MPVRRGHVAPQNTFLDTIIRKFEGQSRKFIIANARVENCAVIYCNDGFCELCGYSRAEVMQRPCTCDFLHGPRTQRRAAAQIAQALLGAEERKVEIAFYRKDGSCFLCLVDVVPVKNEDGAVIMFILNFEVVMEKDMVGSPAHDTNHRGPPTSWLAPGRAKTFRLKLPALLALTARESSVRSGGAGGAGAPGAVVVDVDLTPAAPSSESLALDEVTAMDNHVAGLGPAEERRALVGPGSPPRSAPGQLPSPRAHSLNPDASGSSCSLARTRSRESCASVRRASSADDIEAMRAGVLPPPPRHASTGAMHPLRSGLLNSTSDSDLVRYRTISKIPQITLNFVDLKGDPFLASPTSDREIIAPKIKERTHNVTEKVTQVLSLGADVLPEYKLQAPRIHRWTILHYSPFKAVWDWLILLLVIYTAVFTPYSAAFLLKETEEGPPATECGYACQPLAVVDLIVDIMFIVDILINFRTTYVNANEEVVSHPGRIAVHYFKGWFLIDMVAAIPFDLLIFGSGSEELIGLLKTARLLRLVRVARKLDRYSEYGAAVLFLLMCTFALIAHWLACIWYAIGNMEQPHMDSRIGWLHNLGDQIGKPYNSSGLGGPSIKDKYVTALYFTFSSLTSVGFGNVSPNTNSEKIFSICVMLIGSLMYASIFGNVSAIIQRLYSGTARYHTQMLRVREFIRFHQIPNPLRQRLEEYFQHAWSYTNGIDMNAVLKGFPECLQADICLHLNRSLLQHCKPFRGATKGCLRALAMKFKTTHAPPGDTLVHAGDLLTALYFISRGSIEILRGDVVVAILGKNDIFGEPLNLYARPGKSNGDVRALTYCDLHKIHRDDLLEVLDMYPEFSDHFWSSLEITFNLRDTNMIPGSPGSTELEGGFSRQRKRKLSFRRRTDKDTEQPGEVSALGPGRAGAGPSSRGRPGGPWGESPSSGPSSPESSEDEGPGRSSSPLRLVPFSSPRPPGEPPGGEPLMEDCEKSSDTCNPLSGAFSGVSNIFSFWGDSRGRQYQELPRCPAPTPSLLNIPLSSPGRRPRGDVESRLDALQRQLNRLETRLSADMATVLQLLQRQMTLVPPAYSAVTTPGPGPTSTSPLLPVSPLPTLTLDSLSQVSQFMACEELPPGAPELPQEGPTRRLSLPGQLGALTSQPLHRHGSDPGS

The molecule `C[C@@H]1Cc2c(ccc3[nH]ncc23)[C@@H](c2c(F)cc(NC3CN(CCCF)C3)cc2F)N1CC1(F)CC1` [Example 11, N-(3,5-difluoro-4-((6S,8R)-7-((1-fluorocyclopropyl)methyl)-8-methyl-6,7,8,9-tetrahydro-3H-pyrazolo[4,3-f]isoquinolin-6-yl)phenyl)-1-(3-fluoropropyl)azetidin-3-amine] gave a hepatocyte CLint at 1 µM in data set [1] of 7 µL/min/1e6 cells. Moreover, the IC50 turned out to be 20 nM in data set [2] and 0.094 nM in data set [3]. The solubility at 24 h in [4] worked out at 186 µM (≈ 93.3 µg/mL). Further, the logD in [5] (setting [11]) amounted to 3.9. The Papp at 2 h in data set [6] stood at 1.6 ×10⁻⁶ cm/s. For the same molecule, in data set [6] (Caco-2, pH 7.4), the efflux ratio at 2 h was 1.4. In [7], the “Human plasma protein binding (% free)” value was 2 % free.
`C[C@@H]1Cc2c(ccc3[nH]ncc23)[C@@H](c2ccc(NC3CN(CCCF)C3)c(F)n2)N1CC(F)(F)F` [Example 29, 2-fluoro-N-(1-(3-fluoropropyl)azetidin-3-yl)-6-((6S,8R)-8-methyl-7-(2,2,2-trifluoroethyl)-6,7,8,9-tetrahydro-3H-pyrazolo[4,3-f]isoquinolin-6-yl)pyridin-3-amine] showed a solubility at 24 h in data set [4] of 779 µM (≈ 385 µg/mL). The log distribution coefficient (logD) in [5] (pH 7.4, 1-octanol/aqueous buffer) came to 3. Further, the Papp at 2 h is 12 ×10⁻⁶ cm/s in data set [6] and 24 ×10⁻⁶ cm/s in [8]. In addition, the “Human plasma protein binding (% free)” value in data set [7] is 16 % free.
`C[C@@H]1Cc2c(ccc3[nH]nc(F)c23)[C@@H](c2ccc(NC3CN(CCCF)C3)cn2)N1CC(F)(F)F` [Example 32] returned a solubility at 24 h in data set [4] of 692 µM (≈ 342 µg/mL). In data set [5] (setting [11]), the logD is 3.5. Further, the “MCF7 Western % ER deg vs Fv” value in data set [9] is on record as 89%. In [6], this molecule gave a Papp at 2 h of 3.4 ×10⁻⁶ cm/s. Further, in [10], the “CAMA1 Western % ER deg vs Fv” value is 89%. Moreover, on hERG potassium channel, the IC50 was 14000 nM. The “Human plasma protein binding (% free)” value in data set [7] is on record as 6.5 % free.
As to `C[C@]12CC[C@@H]3c4ccc(O)cc4C[C@@H](CCCCCCCCC[S+]([O-])CCCC(F)(F)C(F)(F)F)[C@H]3[C@@H]1CC[C@@H]2O` (stereo partly drawn) [Fulvestrant, fulvestrant], on ERα receptor, the “turnover of the receptor in patient samples” value is on record as “less than 50%”.
